Common to all, as to assay type: in vivo
Series [1] relates to Dutch Belted rabbit eyes. As to the kind of experiment: Histopathology of eyes after corneal scraping (Example 2). To be noted: one of the four glyceraldehyde treated eyes; presumably due to scraping. As to the method:
The study animals were sacrificed on Study Day 74 with an intravenous injection of pentobarbital (2 mg/kg). Eyes from the study animals were enucleated immediately post-sacrifice and placed in labeled tubes containing approximately 5 mL of half-strength Kamovsky's fixative (2.5% glutaraldehyde, 2.5% paraformaldehyde, 2.5 mM CaCl2, 100 mM Na Cacodylate, pH 7.4) for approximately 1 hour. The eyes were removed and small windows (1×3 mm) were made in the cornea/iris to allow penetration of the fixative to the vitreous. The eyes were then placed in 25 mL of fresh fixative. The fixed eyes were then sent to Consolidated Veterinary Diagnostics, Inc. (West Sacramento, Calif.) where they underwent routine tissue processing, sectioning, and staining with hematoxylin/eosin. They were examined by a Board Certified Veterinary Pathologist.
The eyes which had undergone corneal scraping and a subsequent healing period were sent to Consolidated Veterinary Diagnostics for tissue processing and pathologic interpretation. In toto, 4 eyes from the glyceraldehyde treated group and 2 eyes from the BSS group were evaluated. […] This description would imply a response to injury (presumably the scraping).

Series [2] relates to eyes of non-sighted human patients. Briefly: Safety of non-enzymatic corneaplasty and topical 3% glyceraldehyde in five non-sighted human patients (Example 5). The conditions noted are these: lenses 7 days, then 3% glyceraldehyde plus lenses 28 days, only minor incidents of SPK. As to the method:
In this study five non-sighted patients with good corneas were treated with contact lenses and a 3% glyceraldehyde solution to determine the safety of this procedure. Here, the patients were fitted with and wore contact lenses for seven (7) days. Following this period a 3% glyceraldehyde solution (described above) was applied to the eyes and the contact lens wear continued for twenty-eight (28) days. After this period both the contact lens wear and the glyceraldehyde treatment ceased.
The patients were individually examined for the effects of the treatments following removal of the lenses and cessation of the glyceraldehyde treatment. The first examination was on the last day of treatment, and five (5) subsequent examinations were administered over a one month period.

In series [3] the test system is eye of myopic human patient. Briefly: Safety and efficacy of hyaluronidase and topical 3% glyceraldehyde solution, myopia in a human patient (Example 8). The conditions noted are these: 50 IU hyaluronidase, lenses, 3% glyceraldehyde drops 15 days; monitored 196 days. As to the method:
In this study, a single subject was selected to test the safety and efficacy of using hyaluronidase and a glyceraldehyde solution to treat sub-optimal visual acuity. In this study, the subject was first medically evaluated and a baseline was established. A medical history of the subject was taken and a detailed examination of the subject's eyes was also performed. The subject's eyes were tested to determine: refraction, cell count, intraocular pressure (IOP), pachymetry, corneal topography and corneal elasticity. A slit-lamp examination was also performed to establish the health of the eyes. Also, the presence of any general or ocular discomfort of the subject was noted.
Following the establishment of a baseline reading (UVA 20/300), the subject was administered a single intrastromal injection of 50 IU hyaluronidase prior to the orthokeratology treatment. Following 7 days of incubation of the subject's eyes with the injected material, the subject was fitted with corrective contact lenses for overnight wear. The subject wore the corrective lenses day and night for a period of seven (7) days. At this point the subject's visual acuity was 20/15. […] The visual acuity of the subject was then monitored for 196 days to determine the effect of the treatment on the unaided visual acuity of the subject;

The test system of series [4] is eyes of myopic human subjects. As to the kind of experiment: Mild myopia study, group I: 50 IU hyaluronidase, corrective lenses, 3% glyceraldehyde (Example 9). The text has this: Given the favorable results obtained in Example 8, an additional study was undertaken to test the safety and efficacy of the method of the present invention using a larger group of subjects. In this study, a group of subjects were selected and randomly separated into three test groups to test the safety and efficacy of using hyaluronidase and a glyceraldehyde solution for treating subjects with sub-optimal visual acuity. Groups one and two received an intrastromal injection of hyaluronidase (50 and 500 IU, respectively), while group three received a control injection of saline.
Following a two week incubation period after the injection, the three groups were fitted with corrective lenses to optimize the visual acuity of the subjects. The corrective lenses were left in place for a period of time sufficient to alter the shape of the subjects' eyes so as to achieve an optimal visual acuity. This period of time was generally 2 days in length. Once an acceptable visual acuity was achieved, the subjects in the three groups received a topical 3% glyceraldehyde solution in the form of ophthalmic drops four times per day while wearing the corrective lenses. The glyceraldehyde treatment was generally administered for one month. Lens wear occurred from 8 to 12 hours during the day.
At the end of the treatment period both the lens wear and the glyceraldehyde solution administration was terminated. The general health and visual acuity of the subjects was monitored from 3 to 5 months following treatment termination.
Before beginning the experimental protocol, test subjects were examined initially to establish a baseline from which the future results of the treatment were compared. For each subject a medical history was taken and a detailed examination of the eyes was also performed. The eyes of each subject were tested to determine: refraction cell count, intraocular pressure (IOP), pachymetry, corneal topography and corneal elasticity. A slit-lamp examination was also performed to establish the health of the eye. Also, the presence of any general or ocular discomfort of the subjects was noted.
Following the establishment of a baseline reading, group 1 subjects were administered a single intrastromal injection of 50 IU hyaluronidase prior to the orthokeratology treatment. Following 14 days of incubation, the subjects were fitted with corrective contact lenses for overnight wear. Subjects wore the corrective lenses night and day for a period of two (2) to seven (7) days or until visual 20/20 visual acuity was achieved. Subjects achieving an acceptable visual acuity (approximately 20/20) received an application of the topical 3% glyceraldehyde solution ophthalmic drops four times per day (8:00, 12:00, 16:00, and 20:00) for a period of 1 month in conjunction with daytime lens wear for stabilization. Lens wear lasted for 8 to 12 hours per day. The subjects were examined periodically during the glyceraldehyde treatment to monitor changes in the health of the treated eyes.
At the end of the treatment period, the stabilizing lens were removed and the administration of the 3% glyceraldehyde solution was terminated. Following termination of the treatment, the subjects were examined immediately after treatment was terminated, once a week for the first four weeks after termination, and then monthly to measure changes in the visual acuity of the treated eyes. The health of the eye was also monitored. Sequelae characterized by the appearance or worsening of serious ocular symptoms or slit-lamp findings observed during these examinations was assessed. The proportions of subjects with such findings were analyzed.

The test system of series [5] is eyes of myopic human subjects. As to the kind of experiment: Mild myopia study, group III: corrective lenses and 3% glyceraldehyde without hyaluronidase (Example 9). To be noted: no hyaluronidase; subject 011; three month follow-up point; baseline 20/20.

Each structure is given as a SMILES string.

Consider `O=CC(O)CO` (stereo not shown) [glyceraldehyde], for which, in series [1], the “pathologic finding in eyes after scraping and healing” value is “superficial scar in the corneal stroma and disruption of Bowman's membrane”. For the same compound, the “corneal findings in all patients” value in series [2] was “Normal corneas”. Also, the “duration of correction of unaided visual acuity” value in series [3] was “more than six months”. Further, in series [4] (glyceraldehyde treatment with injection of 50 IU of hyaluronidase), the “overall effect on correction of visual acuity” value is on record as “effective in facilitating the correction”. Also, the “visual acuity at follow-up after end of treatment” value in series [4] (subject 001, 5-month follow up, baseline 20/80) is listed as 20/40; in series [4] (subject 002, 4-month follow-up, baseline 20/300), 20/125; in series [4] (subject 007, 3-month follow-up, baseline 20/200), 20/50; in series [4] (subject 009, 3-month follow-up, baseline 20/200), 20/63; in series [4] (subject 015, 3-month follow-up, baseline 20/80), 20/25. Moreover, the “visual acuity at follow-up” value is 20/20 in series [4] (subject 010R, time not stated, baseline 20/80); 20/80 in series [4] (subject 022R, 3-week followup, baseline 20/62); 20/40 in series [4] (subject 024R, time not stated, baseline 20/100); 20/125 in series [4] (subject 028, 2-month point, baseline 20/300); 20/40 in series [4] (subject 029, 2-month point, baseline 20/200); 20/125 in series [4] (subject 033, 2-month point, baseline 20/300). Also, in series [5], the “UVA at follow-up after end of treatment” value is 20/40.

Source of the values: patent US6537545B1, “Use of corneal hardening agents in enzymeorthokeratology” (ISTA Pharmaceuticals, Inc., priority 1998, dated 2003).
